Measured values: article PMC10530836, “Synthesis, Molecular Docking, and Biological Evaluation of Novel Anthranilic Acid Hybrid and Its Diamides as Antispasmodics” (International Journal of Molecular Sciences, 2023)

Tests used:
Type in all cases: cell-based
[1] = tested on: K-562, LAMA-84, T-24, CCL-1 cell lines; assay: MTT cell viability assay, cell line panel; conditions: leukemic cells LAMA-84 and K-562; read-out: IC50 estimates
Procedure: Based on the PASS online and the ProToxII in silico calculations, the evaluation of the cytotoxic activity of the compounds was the other object of our investigation. A series of MTT experiments were conducted to evaluate the in vitro effects of the tested compounds on cell growth in both normal (murine fibroblast CCL-1 cells) and malignant human cell lines of leukemic (K-562, LAMA-84) and epithelial (T-24 bladder carcinoma cells) origin.
To evaluate the biocompatibility of the hybrid compounds, their in vitro antiproliferative activity was assessed in a panel of human malignant cell lines of different origin (K-562 and LAMA-84 suspension-growing myeloid leukemia cells, positive for the Philadelphia chromosome, and the urothelial bladder carcinoma cell line T-24 of adherent type). Non-malignant murine fibroblast cells (CCL-1) were also used as a screening platform. […]
The effects of the newly synthesized anthranilic derivatives on cell viability were measured using a validated colorimetric assay for evaluating cell viability, known as the Mosmann MTT method. […] The latter was dissolved in isopropyl alcohol solution containing 5% formic acid prior to absorbance measurement at 550 nm. Collected absorbance values were blanked against MTT and isopropanol solution and normalized to the mean value of untreated control (100% cell viability).

[2] = tested on: Fusarium moniliforme ATCC 38932; assay: Antimicrobial activity, agar well diffusion; conditions: Dose 0.6 mg/disk, dwell = 6 mm
Outline: (§1)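 Inhibition-zone diameter around 6 mm wells holding 60 μL extract, measured at 24 h and 48 h; ≥18 mm counted as sensitive, 12–18 mm moderately sensitive, up to 12 mm or no zone resistant. Fungal spores were at 10^5 cfu/mL on MEA at 30 °C, bacterial and yeast cells at 10^8 cfu/mL.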

[3] = tested on: Mucor sp.; assay: Antimicrobial activity, agar well diffusion; conditions: Dose 0.6 mg/disk, dwell = 6 mm
Outline: as §1

[4] = tested on: Candida albicans NBIMCC 74; assay: Antimicrobial activity, agar well diffusion; conditions: Dose 0.6 mg/disk, dwell = 6 mm
Outline: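 Agar well diffusion: L. monocytogenes cells on LBG agar at 37 °C and C. albicans on MEA at 37 °C (10^8 cfu/mL), A. niger and Rhizopus spores on MEA at 30 °C (10^5 cfu/mL), seeded into the agar. 60 μL of extract went into 6 mm wells in triplicate. Inhibition zone diameters were read at 24 and 48 h.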

[5] = tested on: Saccharomyces cerevisiae ATCC 9763; assay: Antimicrobial activity, agar well diffusion; conditions: Dose 0.6 mg/disk, dwell = 6 mm
Outline: as §1

IC50 [1] [µM]	SMILES	Inhibition Zones [2] [mm]	Inhibition Zones [3] [mm]	Inhibition Zones [4] [mm]	Inhibition Zones [5] [mm]
30 to 60	O=C(Nc1ccccc1C(=O)NCCc1cccc(Cl)c1)c1ccccc1 [Compound 4b, 2-benzamido-N-(3-chlorophenethyl)benzamide]	–	–	–	–
–	Nc1ccccc1C(=O)NCCc1cccc(Cl)c1 [Compound 3, 2-amino-N-(3-chlorophenethyl)benzamide]	15	15	15	15
